From publication PMC10482691, “LTP induction by structural rather than enzymatic functions of CaMKII” (Nature, 2023) come the findings set out here.

Where “and” joins values, the source holds several entries; their conditions need not be identical. Identical values can stand only once.

The subject of assay [1] is GFP–CaMKII in rat hippocampal neurons. As to the kind of experiment: cLTP-induced CaMKII synaptic enrichment in dissociated hippocampal cultures (GFP–CaMKII WT). It is filed as cell-based. The following applies: for CaMKII synaptic enrichment: GFP-CaMKII WT, individual neurons, sheet 4e.
In assay [2] the target is Pim-3(h) (Homo sapiens, UniProt Q86V86). As to the kind of experiment: Kinase selectivity panel (residual activity at 1 μM). It is filed as biochemical. The following applies: inhibitor at 1 μM; read-out: residual kinase activity in % of maximal activity.
Assay [3] addresses purified CaMKIIα (Rattus norvegicus, UniProt P11275). As to the kind of experiment: In vitro kinase reaction: CaMKIIα autophosphorylation of T286. It is filed as biochemical. To be noted: 30 °C, 1 mM ATP, Ki from IC50 with Km ATP 33.3 μM, read-out: apparent inhibitor constant (Ki), pT286. The protocol: Data are presented as mean values ± s.e.m. a, Schematic of the AS283 inhibitor mechanism of action: ATP-competitive inhibition blocks enzymatic activity while mimicking the nucleotide binding requirement to allow interaction with GluN2B. b, Representative immunoblot and quantification of in vitro kinase reactions at 30 °C in 1 mM ATP measuring purified CaMKIIα phosphorylation of GST–GluA1 S831 with varying concentrations of AS283 (0.41–10 μM; n = 4 independent concentration curves). For a negative control (Neg.), ATP was omitted. […] ADP:AS283 P = 0.0697; ADP:tatCN21 P < 0.0001. ***P < 0.001. d, Confocal microscopy images of HEK293 cells co-expressing GFP–CaMKII and mCherry-2BC. […] CaMKII synaptic enrichment was measured before and after cLTP (n = 14,9 cells; RM two-way ANOVA with Šídák’s multiple comparisons test). […]
CaMKII-mediated phosphorylation of GluA1 S831 or GluN2B S1303 was measured by in vitro kinase reaction with a purified GST–GluA1 C-terminal tail or GST-GluN2B C-terminal tail. […] GST, phospho-S831, CaMKII, phospho-T286 or phospho-S1303 were detected in the samples by immunoblot analysis.
The inhibition constant Ki was calculated using the Cheng–Prusoff equation for competitive inhibition: Ki = IC50/(1 + [ATP]/Km).

Assay [4] deals with FAK(h) (Homo sapiens, UniProt Q05397). As to the kind of experiment: Kinase selectivity panel (residual activity at 1 μM). Type of assay: biochemical. The following applies: inhibitor at 1 μM; read-out: residual kinase activity in % of maximal activity.
FAK(h), sequence (Q05397 whole entry): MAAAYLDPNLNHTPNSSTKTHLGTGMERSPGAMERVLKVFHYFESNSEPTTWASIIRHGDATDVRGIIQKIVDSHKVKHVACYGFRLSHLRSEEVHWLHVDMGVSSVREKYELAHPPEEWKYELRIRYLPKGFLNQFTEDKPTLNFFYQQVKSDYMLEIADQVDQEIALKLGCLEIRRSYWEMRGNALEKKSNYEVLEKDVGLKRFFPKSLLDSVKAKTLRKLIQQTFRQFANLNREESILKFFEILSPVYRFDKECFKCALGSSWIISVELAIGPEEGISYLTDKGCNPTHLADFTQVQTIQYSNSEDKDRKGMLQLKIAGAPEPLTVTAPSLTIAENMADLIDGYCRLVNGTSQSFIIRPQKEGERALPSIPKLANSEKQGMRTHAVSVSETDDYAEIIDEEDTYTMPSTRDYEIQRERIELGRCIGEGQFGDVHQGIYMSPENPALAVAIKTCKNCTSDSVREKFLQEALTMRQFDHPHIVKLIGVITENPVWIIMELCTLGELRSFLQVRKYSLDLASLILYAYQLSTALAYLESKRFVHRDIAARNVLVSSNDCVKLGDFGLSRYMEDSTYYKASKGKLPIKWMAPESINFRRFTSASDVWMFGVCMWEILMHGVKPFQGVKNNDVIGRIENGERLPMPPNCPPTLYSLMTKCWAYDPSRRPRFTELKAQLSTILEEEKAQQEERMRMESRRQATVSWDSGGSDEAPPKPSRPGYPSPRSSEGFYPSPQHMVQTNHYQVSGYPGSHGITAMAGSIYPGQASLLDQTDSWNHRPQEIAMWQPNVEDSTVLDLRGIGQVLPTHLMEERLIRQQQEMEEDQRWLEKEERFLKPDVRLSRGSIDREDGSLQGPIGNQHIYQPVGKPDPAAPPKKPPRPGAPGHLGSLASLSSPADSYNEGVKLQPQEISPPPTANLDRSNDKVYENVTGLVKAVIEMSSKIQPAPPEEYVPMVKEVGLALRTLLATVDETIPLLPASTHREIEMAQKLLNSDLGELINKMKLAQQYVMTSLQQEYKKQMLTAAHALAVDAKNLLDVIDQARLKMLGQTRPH
In assay [5] the target is GFP–CaMKII WT / mCh-GluN2B-c tail in HEK293 cells (Homo sapiens, UniProt Q9UQM7). The assay is described as follows: Ionomycin-induced colocalization of GFP–CaMKII WT and mCherry-2BC in HEK293 cells. It is filed as cell-based. To be noted: 10 μM AS283.
Description: HEK cells were grown and transfected with expression vectors for GFP–CaMKII mutants and pDisplay-mCh-GluN2B-c tail (2BC) as previously described[24],[57]; the GluN2B construct used included an S1303A mutation to avoid potential complications by differential phosphorylation of this regulatory site[13],[27] in the different conditions with or without kinase inhibitors. GFP–CaMKII colocalization with GluN2B in response to a Ca^2+ stimulus induced by 10 μM ionomycin was monitored for 5–10 min at 32 °C in imaging buffer (0.87× Hanks Balanced Salt Solution, 25 mM HEPES, pH 7.4, 2 mM glucose, 2 mM CaCl2, 1 mM MgCl2) by fluorescence microscopy. Images were acquired on a Zeiss Axiovert 200M equipped with a climate control chamber using SlideBook software (Intelligent Imaging Innovations; v.6.0). Colocalization analysis was performed by calculating the Pearson’s correlation (correlation index) with ImageJ of pDisplay-mCh-2BC and GFP–CaMKII within the cytoplasm of HEK cells after background subtraction.
Assay [6] deals with CA3–CA1 LTP in CaMKII T286A mutant slices. As to the kind of experiment: LTP field recordings in hippocampal slices of T286A mice. It is filed as cell-based, mouse. To be noted: for fEPSP slope (normalized to baseline): individual slices, sheet 3c. The protocol: WT and mutant mouse hippocampal slices were prepared using P56–P70 mice. Isoflurane-anesthetized mice were rapidly decapitated, and the brain was dissected in an ice-cold high-sucrose solution containing 220 mM sucrose, 12 mM MgSO4, 10 mM glucose, 0.2 mM CaCl2, 0.5 mM KCl, 0.65 mM NaH2PO4, 13 mM NaHCO3 and 1.8 mM ascorbate. Transverse hippocampal slices (400 μm) were made using a tissue chopper (McIlwain) and transferred into 32 °C ACSF containing 124 mM NaCl, 3.5 mM KCl, 1.3 mM NaH2PO4, 26 mM NaHCO3, 10 mM glucose, 2 mM CaCl2, 1 mM MgSO4 and 1.8 mM ascorbate. All slices were recovered in 95% O2/5% CO2 for at least 1.5 h before experimentation.
For electrophysiological slice recording experiments, a glass micropipette (typical resistance of 0.4–0.8 megaohm when filled with ACSF) was used to record fEPSPs from the CA1 dendritic layer in response to stimulation of the Schaffer collaterals using a tungsten bipolar electrode. Slices were continually perfused with 30.5 °C ± 0.5 °C ACSF at a rate of 2.5 ± 0.5 ml min^−1 during recordings. Stimuli were delivered every 20 s, and three responses (1 min) were averaged for analysis. Data were analysed using WinLTP software with slope calculated as the initial rise from 10 to 60% of the response peak. Input–output curves were generated by increasing the stimulus intensity at a constant interval until a maximum response or population spike was noted to determine stimulation that elicits 50% of maximum slope. […] A stable baseline was acquired for a minimum of 20 min at 50% maximum slope before high-frequency stimulation (HFS; 2 × 100 Hz, 10 s interval) was applied. Responses were recorded for 40 or 60 min after HFS. Change in slope was calculated as a ratio of the average slope of the 20 min baseline (before HFS). Bar graphs of the percentage of fEPSP slope were calculated by averaging the last 10 min time points post-HFS and normalized to baseline.

Assay [7] deals with T1, GFP–CaMKII F89G / mCh-GluN2B-c tail in HEK293 cells (Homo sapiens, UniProt Q9UQM7, F89G).
T1 construct: expressed in transfected cells; host or cells: HEK293
T1 sequence (Q13224 836-1484 S1303A): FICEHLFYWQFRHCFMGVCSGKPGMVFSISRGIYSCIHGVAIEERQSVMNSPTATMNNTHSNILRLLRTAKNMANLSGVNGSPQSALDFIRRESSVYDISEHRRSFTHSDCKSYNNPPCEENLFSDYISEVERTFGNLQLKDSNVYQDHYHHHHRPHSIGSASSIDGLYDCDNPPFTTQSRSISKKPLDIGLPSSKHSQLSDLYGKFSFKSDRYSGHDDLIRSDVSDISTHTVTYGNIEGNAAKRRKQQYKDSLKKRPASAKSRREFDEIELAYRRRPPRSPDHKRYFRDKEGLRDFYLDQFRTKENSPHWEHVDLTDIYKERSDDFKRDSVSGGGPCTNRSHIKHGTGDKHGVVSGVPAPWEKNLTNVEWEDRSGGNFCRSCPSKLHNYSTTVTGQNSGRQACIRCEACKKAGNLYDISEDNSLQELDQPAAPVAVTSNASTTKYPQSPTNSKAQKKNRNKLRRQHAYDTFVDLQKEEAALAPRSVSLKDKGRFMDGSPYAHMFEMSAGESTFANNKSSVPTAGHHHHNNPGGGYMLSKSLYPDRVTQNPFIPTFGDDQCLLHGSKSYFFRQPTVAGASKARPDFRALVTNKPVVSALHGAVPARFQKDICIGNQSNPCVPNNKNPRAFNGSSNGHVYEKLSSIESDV
T1 sequence (Q9UQM7 whole entry F89G): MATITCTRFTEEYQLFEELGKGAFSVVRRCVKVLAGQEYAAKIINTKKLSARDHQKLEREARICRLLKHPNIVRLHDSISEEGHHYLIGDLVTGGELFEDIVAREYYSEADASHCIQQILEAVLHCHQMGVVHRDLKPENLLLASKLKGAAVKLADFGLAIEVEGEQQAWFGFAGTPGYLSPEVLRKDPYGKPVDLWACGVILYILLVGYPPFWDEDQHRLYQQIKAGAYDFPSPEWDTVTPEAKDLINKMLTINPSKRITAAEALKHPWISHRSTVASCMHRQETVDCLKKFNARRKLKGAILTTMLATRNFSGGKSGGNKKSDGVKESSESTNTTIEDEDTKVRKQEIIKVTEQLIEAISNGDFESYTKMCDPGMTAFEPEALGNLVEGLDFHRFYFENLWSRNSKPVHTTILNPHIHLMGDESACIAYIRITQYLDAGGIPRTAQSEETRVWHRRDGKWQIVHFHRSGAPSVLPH
As to the kind of experiment: Ionomycin-induced colocalization of GFP–CaMKII F89G and mCherry-2BC in HEK293 cells. It is filed as cell-based. To be noted: 10 µM NM-PP1.

Regarding `NCCNc1cccc(-c2ccnc3[nH]c4ccccc4c23)c1` [AS283], in assay [1] (AS283), the “effect on CaMKII movement to excitatory synapses in response to cLTP” value is on record as “did not interfere”. Further, the remaining activity at 1 µM in assay [2] worked out at 97%; in assay [4], 68%. Besides, in assay [3], the Ki is 0.071 µM. For the same molecule, the “effect on CaMKII binding to GluN2B in colocalization assay” value in assay [5] is recorded as “did not inhibit”. Moreover, the “effect on LTP in slices from T286A mutant mice” value in assay [6] (AS283 10 μM) was “enabled LTP”. Moreover, the “LTP quantification (fEPSP slope normalized to baseline)” value in assay [6] (T286A mice, 10 μM AS283 during LTP induction) is 173.525% and 142.167% and 174.092% and 153.624%. Besides, the “fEPSP slope (normalized to baseline)” value in assay [6] (Time (min) 1.33333) was 226.574 and 276.052 and 180.946 and 150.731; in assay [6] (Time (min) 2.33333), 192.365 and 206.349 and 186.037 and 149.446; in assay [6] (Time (min) 3.33333) it was 182.945 and 175.983 and 184.471 and 147.196; in assay [6] (Time (min) 4.33333), 177.987 and 162.181 and 176.442 and 135.626; in assay [6] (Time (min) 5.33333), 158.156 and 152.519 and 169.979 and 137.876; in assay [6] (Time (min) 6.33333) it was 150.223 and 154.589 and 168.609 and 152.017. Further, the “fEPSP slope (normalized to baseline)” value was 124.442 and 151.829 and 171.154 and 133.698 in assay [6] (Time (min) 7.33333); 102.628 and 144.237 and 169 and 134.983 in assay [6] (Time (min) 8.33333); 104.115 and 145.618 and 173.309 and 134.983 in assay [6] (Time (min) 9.33333); 122.955 and 140.787 and 178.596 and 135.626 in assay [6] (Time (min) 10.3333); 100.149 and 132.505 and 172.721 and 133.055 in assay [6] (Time (min) 11.3333); 126.921 and 132.505 and 175.267 and 134.662 in assay [6] (Time (min) 12.3333). Also, the “fEPSP slope (normalized to baseline)” value was 91.7204 and 91.0973 and 91.6479 and 102.523 in assay [6] (Time (min) -1); 90.7288 and 96.6184 and 93.802 and 102.844 in assay [6] (Time (min) -2); 103.619 and 106.97 and 89.298 and 98.6662 in assay [6] (Time (min) -3); 104.115 and 88.3368 and 91.2562 and 100.916 in assay [6] (Time (min) -4); 91.7204 and 91.0973 and 97.7186 and 101.237 in assay [6] (Time (min) -5); 96.1825 and 96.6184 and 96.7395 and 100.273 in assay [6] (Time (min) -6). Further, the “fEPSP slope (normalized to baseline)” value is 87.2583 and 94.548 and 98.5019 and 100.916 in assay [6] (Time (min) -7); 96.1825 and 95.9282 and 99.6769 and 97.7021 in assay [6] (Time (min) -8); 98.6614 and 96.6184 and 102.614 and 101.88 in assay [6] (Time (min) -9); 90.7288 and 91.0973 and 99.0894 and 97.0593 in assay [6] (Time (min) -10); 103.124 and 102.139 and 101.439 and 98.9876 in assay [6] (Time (min) -11); 109.073 and 120.083 and 100.656 and 94.4882 in assay [6] (Time (min) -12). In addition, the “fEPSP slope (normalized to baseline)” value in assay [6] (Time (min) -13) is 105.602 and 105.59 and 103.398 and 96.4165.
`CC(C)(C)n1nc(Cc2cccc3ccccc23)c2c(N)ncnc21` [NM-PP1]: in assay [7], the “effect on binding of CaMKII F89G to GluN2B in HEK cells” value was “fully enabled binding”. Moreover, the CaMKII synaptic enrichment was 1.457 and 1.288 and 1.299 and 1.252 and 1.168 and 1.649 in assay [1] (NMPP1, before cLTP); 2.238 and 1.828 and 2.413 and 1.827 and 1.651 and 2.282 in assay [1] (after cLTP in NMPP1).
